This passage reports EC50 results from US8383655B2, “Modulators of pharmacokinetic properties of therapeutics” (Gilead Sciences, Inc., priority 2006, dated 2013).

pEC50: −log10 of the molar value. A value given as a limit tells only on which side of the number the result lay.

As a reminder, the pEC50 is the EC50 on a negative log10 scale, so that one unit is a factor of ten.

The subject of this assay is HIV-1 strain IIIB. As to the kind of experiment: Anti-HIV-1 cell culture assay (EC50), XTT cytopathic effect. Format: cell-based. The note with it: Human immunodeficiency virus 1, 120 h; MT2 cells infected with wild-type HIV-1 IIIB, 5 days; read-out: protease inhibition activity represented by HIV EC50.

Method: The assay is based on quantification of the HIV-1-associated cytopathic effect by a colorimetric detection of the viability of virus-infected cells in the presence or absence of tested inhibitors. HIV-1-induced cell death was determined using a metabolic substrate 2,3-bis(2-methoxy-4-nitro-5-sulfophenyl)-2H-tetrazolium-5-carboxanilide (XTT) which is converted only by intact cells into a product with specific absorption characteristics as described by Weislow O S, Kiser R, Fine D L, Bader J, Shoemaker R H and Boyd M R, J. Natl. Cancer Inst.
The infected cells in culture media were distributed into a 96-well plate (20,000 cells in 100 μl/well), and incubated in the presence of a set of solutions containing 5-fold serial dilutions of the tested inhibitor (100 μl/well) for 5 days at 37° C. […]
To determine the antiviral activity of the tested inhibitors, a substrate XTT solution (6 mL per assay plate) at a concentration of 2 mg/mL in a phosphate-buffered saline pH 7.4 was heated in water-bath for 5 min at 55° C. before 50 μl of N-methylphenazonium methasulfate (5 μg/mL) was added per 6 mL of XTT solution. […] Viability, as determined by the amount of XTT metabolites produced, was quantified spectrophotometrically by the absorbance at 450 nm (with subtraction of the background absorbance at 650 nm).

In the case of `CC(C)c1nc(CN(C)C(=O)N[C@@H](CCN2CCOCC2)C(=O)N[C@H](CC[C@H](Cc2ccccc2)NC(=O)OCc2cncs2)Cc2ccccc2)cs1` [Example S], the pEC50 was below 4.70.
